Non-standard residues stand in square brackets, D forms with d. Residues, ends and D or L forms follow the SMILES beside them. Abu(4,4,4-F3) = N[C@@H](CC(F)(F)F)C(=O)O; Abu(4,4-F2) = N[C@@H](CC(F)F)C(=O)O; 4Abz = Nc1ccc(C(=O)O)cc1; Abu = CC[C@H](N)C(=O)O

The subject of the first series is Plasma. The series is described as follows: (§1) Proteolytic stability in human plasma assessed as compound degradation at 1:3 compound to plasma ratio after 2 hrs by RP-HPLC analysis relative to control. The series is classed as ADME, cell-free. The conditions noted are these: 2 h.
Consider `C[C@H](NC(=O)[C@H](C)NC(=O)[C@H](CC(F)(F)F)NC(=O)[C@H](C)NC(=O)[C@H](Cc1ccccc1)NC(=O)[C@H](C)NC(=O)[C@H](C)NC(=O)[C@H](CCCCN)NC(=O)c1ccc(N)cc1)C(=O)N[C@@H](CCCCN)C(=O)O.O=C(O)C(F)(F)F` (H-[4Abz]KAAFA[Abu(4,4,4-F3)]AAK-OH), for which the Stability result is listed as “Unstable”.

Turning to `CC[C@H](NC(=O)[C@H](C)NC(=O)[C@H](Cc1ccccc1)NC(=O)[C@H](C)NC(=O)[C@H](C)NC(=O)[C@H](CCCCN)NC(=O)c1ccc(N)cc1)C(=O)N[C@@H](C)C(=O)N[C@@H](C)C(=O)N[C@@H](CCCCN)C(=O)O.O=C(O)C(F)(F)F` (H-[4Abz]KAAFA[Abu]AAK-OH), the Stability entry is on record as “Stable”.

Turning to `C[C@H](NC(=O)[C@H](C)NC(=O)[C@H](CC(F)(F)F)NC(=O)[C@H](Cc1ccccc1)NC(=O)[C@H](C)NC(=O)[C@H](C)NC(=O)[C@H](CCCCN)NC(=O)c1ccc(N)cc1)C(=O)N[C@@H](C)C(=O)N[C@@H](CCCCN)C(=O)O.O=C(O)C(F)(F)F` (H-[4Abz]KAAF[Abu(4,4,4-F3)]AAAK-OH), the Stability result is recorded as “Stable”. On the same count and under the same terms, to `CC[C@H](NC(=O)[C@H](C)NC(=O)[C@H](CCCCN)NC(=O)c1ccc(N)cc1)C(=O)N[C@@H](Cc1ccccc1)C(=O)N[C@@H](C)C(=O)N[C@@H](C)C(=O)N[C@@H](C)C(=O)N[C@@H](C)C(=O)N[C@@H](CCCCN)C(=O)O.O=C(O)C(F)(F)F` (H-[4Abz]KA[Abu]FAAAAK-OH) belongs “Stable”.

System in another series: not listed separately
Described as §1. The conditions noted are these: read-out: Drug degradation. Format: ADME, cell-free.
Take `C[C@H](NC(=O)[C@H](C)NC(=O)[C@H](CC(F)F)NC(=O)[C@H](C)NC(=O)[C@H](Cc1ccccc1)NC(=O)[C@H](C)NC(=O)[C@H](C)NC(=O)[C@H](CCCCN)NC(=O)c1ccc(N)cc1)C(=O)N[C@@H](CCCCN)C(=O)O` (H-[4Abz]KAAFA[Abu(4,4-F2)]AAK-OH) [listing 1 of 2 here]: the metabolised at 2 h was no more than 35%.

System in the next series: not listed separately
The experiment in a line: Proteolytic stability in Tris-HCl buffer assessed as compound degradation at 20 umol/ml after 2 hrs by RP-HPLC analysis in presence of elastase relative to control. Format: ADME. The conditions noted are these: buffer, 2 h.
`C[C@H](NC(=O)[C@H](C)NC(=O)[C@H](CC(F)(F)F)NC(=O)[C@H](C)NC(=O)[C@H](Cc1ccccc1)NC(=O)[C@H](C)NC(=O)[C@H](C)NC(=O)[C@H](CCCCN)NC(=O)c1ccc(N)cc1)C(=O)N[C@@H](CCCCN)C(=O)O` (H-[4Abz]KAAFA[Abu(4,4,4-F3)]AAK-OH): the Stability result is “Unstable”. For the compound `C[C@H](NC(=O)[C@H](C)NC(=O)[C@H](CC(F)F)NC(=O)[C@H](C)NC(=O)[C@H](Cc1ccccc1)NC(=O)[C@H](C)NC(=O)[C@H](C)NC(=O)[C@H](CCCCN)NC(=O)c1ccc(N)cc1)C(=O)N[C@@H](CCCCN)C(=O)O` (H-[4Abz]KAAFA[Abu(4,4-F2)]AAK-OH) [listing 2 of 2 here], the Stability result is recorded as “Stable”. As to `CC[C@H](NC(=O)[C@H](C)NC(=O)[C@H](Cc1ccccc1)NC(=O)[C@H](C)NC(=O)[C@H](C)NC(=O)[C@H](CCCCN)NC(=O)c1ccc(N)cc1)C(=O)N[C@@H](C)C(=O)N[C@@H](C)C(=O)N[C@@H](CCCCN)C(=O)O` (H-[4Abz]KAAFA[Abu]AAK-OH), the Stability entry is “Stable”. Regarding `C[C@H](NC(=O)[C@H](C)NC(=O)[C@H](CC(F)(F)F)NC(=O)[C@H](Cc1ccccc1)NC(=O)[C@H](C)NC(=O)[C@H](C)NC(=O)[C@H](CCCCN)NC(=O)c1ccc(N)cc1)C(=O)N[C@@H](C)C(=O)N[C@@H](CCCCN)C(=O)O` (H-[4Abz]KAAF[Abu(4,4,4-F3)]AAAK-OH), the Stability result is “Stable”. The same measure, in the same setting: to `CC[C@H](NC(=O)[C@H](Cc1ccccc1)NC(=O)[C@H](C)NC(=O)[C@H](C)NC(=O)[C@H](CCCCN)NC(=O)c1ccc(N)cc1)C(=O)N[C@@H](C)C(=O)N[C@@H](C)C(=O)N[C@@H](C)C(=O)N[C@@H](CCCCN)C(=O)O` (H-[4Abz]KAAF[Abu]AAAK-OH) belongs “Stable”.

Staying with this series, now noted: elastase in Tris-HCl buffer; read-out: Drug degradation.
Turning to `C[C@H](NC(=O)[C@H](C)NC(=O)[C@H](CC(F)F)NC(=O)[C@H](Cc1ccccc1)NC(=O)[C@H](C)NC(=O)[C@H](C)NC(=O)[C@H](CCCCN)NC(=O)c1ccc(N)cc1)C(=O)N[C@@H](C)C(=O)N[C@@H](CCCCN)C(=O)O` (H-[4Abz]KAAF[Abu(4,4-F2)]AAAK-OH), the metabolised at 2 h, 20 umol/ml is no more than 35%. Still for that read-out and setting: with `C[C@H](NC(=O)[C@H](C)NC(=O)[C@H](C)NC(=O)[C@H](Cc1ccccc1)NC(=O)[C@H](CC(F)F)NC(=O)[C@H](C)NC(=O)[C@H](CCCCN)NC(=O)c1ccc(N)cc1)C(=O)N[C@@H](C)C(=O)N[C@@H](CCCCN)C(=O)O` (H-[4Abz]KA[Abu(4,4-F2)]FAAAAK-OH) the figure was no more than 35%.

Source of the values: ChEMBL document CHEMBL2390951, “Impact of fluorination on proteolytic stability of peptides in human blood plasma” (Bioorg Med Chem, 2013).
